In patent publication US12385042B2, “Cell-penetrating peptides” (VECTIOPEP OÜ, priority 2019, dated 2025):
Where a SMILES comes first, the peptide text is derived from it. Bridges are numbered along the chain shown (N, C = ends). Roman numbers before positions name the chains, in order. [ ]: non-standard residue; d: D form. The star is where a group is joined. Arachidoyl = CCCCCCCCCCCCCCCCCCCC(=O)*; Stearoyl = CCCCCCCCCCCCCCCCCC(=O)*; Orn = NCCC[C@H](N)C(=O)O

Assays:
[1] = Negative staining TEM of CPP/siRNA nanoparticles; assay type: physicochemical; details: CPP/siRNA complexes at MR30
Procedure: For the morphological analysis the CPP/siRNA complexes were assembled as described above at MR30. For negative staining, copper grids were covered with Formvar film and carbon layer using Leica EM ACE600 carbon coater (Leica Microsystems, Germany). Then, 10 μL of each sample was absorbed to the grids for 2 min and excess of solution was gently removed. Samples were then exposed to 2% aqueous uranyl acetate solution for 1 min. After removing excess stain with filter paper, the samples were allowed to air-dry. The samples were examined at 120 kV accelerating voltage on FEI Tecnai G2 Spirit electron microscope (FEI, The Netherlands).

[2] = Fluorescent dye (PicoGreen) intercalation and heparin displacement assay of CPP/siRNA complexes; assay type: physicochemical; details: for accessibility of siRNA in complexes (dye intercalation): MR30, no heparin
How it was run: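 PicoGreen fluorescence (ex 492/em 535 nm) of CPP/siRNA complexes in water after 5 min with dye, reporting siRNA accessibility. In the displacement arm, complexes were first incubated with heparin at varying concentrations for 30 min at 37 °C before adding PicoGreen.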

[3] = system: murine blood coagulation factor VII mRNA; assay: Gene downregulation in vivo (siFVII, mouse liver, qRT-PCR)
Procedure: For the gene downregulation studies male Balb/c, 2-4 month-old mice were used, with 2-5 mice per group. The CPP/siRNA complexes were formed at MR30 and for each mouse 1.6 mg/kg siRNA dose was used. Particle formulations were administered intravenously via tail vein injection, at 1.6 mg/kg siRNA dose. 48 h post treatment, liver tissues were harvested and snap-frozen for analyses. The tissues were homogenized using Precellys®24-Dual homogenization system (Bertin Technologies, France) with TRIzol reagent (Thermo Fisher Scientific). RNA was extracted according to TRIzol manufacturers protocol with slight modifications. RNA quality and concentration was assessed on 1.8% agarose gel and NanoDrop2000. From RNA complementary DNA was synthesized using SuperScript IV Reverse Transcriptase (Thermo Fisher Scientific) according to manufacturer's protocol. The synthesized cDNA was used for qPCR accompanied with 5× HOT FIREPol EvaGreen qPCR Supermix (Solis Biodyne, Estonia) according to manufacturer's protocol. The obtained data was analyzed using 2-ΔΔCT method and normalized to untreated mouse group (100%). siRNA against blood coagulation factor VII (siFVII) sense 5′-gga (2′F-U) (2′F-C) a (2′F-U) (2′F-C) (2′F-U) (2′F-C) aag (2′F-U) (2′F-C) (2′F-U) (2′F-U) a (2′F-C) T*T-3″ and antisense 5′-g (2′F-U) aaga (2′F-C) (2′F-U) (2′F-U) gaga (2′F-U) ga (2′F-U) (2′F-C) (2′F-C) T*T 3′. Primers for PCR (Mus blood coagulation factor VII) forward […] (SEQ ID NO:11), reverse: […] (SEQ ID NO:12) and (Mus Actin beta) forward: […] (SEQ ID NO: 13) and reverse: […] (SEQ ID NO:14). The siRNA and primers were synthesized by the same manufacturer (Metabion, Germany). Data was collected with ViiA 7 RT_PCR system and analysis based on […] and normalized to results from untreated mice.
As a control hydrodynamic injection of 600 ul of siRNA was used and untreated mice were included. All animal experiments and procedures were approved by the Estonian Laboratory Animal Ethics Committee (approvals no 81, dated Apr. 4, 2016, and 69 and 70, dated Feb. 9, 2011).

Proteinase K = molecular target: T1, Proteinase K (Parengyodontium album, UniProt P06873); assay: Stability of CPP/siRNA complexes to degradation by Proteinase K; assay type: physicochemical; details: Proteinase K >14.4 U per well
T1 construct: purchased Thermo Scientific, USA
T1 sequence (P06873 106-384): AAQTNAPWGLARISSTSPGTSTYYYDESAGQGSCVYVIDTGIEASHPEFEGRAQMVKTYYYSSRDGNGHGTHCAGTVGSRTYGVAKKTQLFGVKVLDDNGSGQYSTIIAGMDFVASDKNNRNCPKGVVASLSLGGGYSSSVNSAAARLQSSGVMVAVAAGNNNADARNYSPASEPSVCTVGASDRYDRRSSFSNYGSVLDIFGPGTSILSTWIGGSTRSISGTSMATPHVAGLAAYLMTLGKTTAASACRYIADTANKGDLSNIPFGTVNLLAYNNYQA
Procedure: To assess protection of siRNA from enzymatic degradation, after addition of PG dilution and initial measurement to set a starting point, Proteinase K (Thermo Scientific, USA) was added (>14 U/ml, 20 ul of mixture per well containing dilution of 120 ul of enzyme in 1 ml), co-incubated with complexes and fluorescence was measured over a 10 h period.

U87 cells = assay: MTS toxicity assay; assay type: cell-based, human
Procedure: Cell proliferation was determined with the CellTiter 96® Aqueous Non-Radioactive Cell Proliferation Assay (MTS) (Promega Biotech AB, Sweden) according to the manufacturer's instructions. For this 1×10^5 U87 cells were seeded 1 day prior to experiment on transparent 96-well plates. On experiment day, media was replaced with 90 ul of fresh media and to the cells complexes formed at MR30 (both with 25 nM and 100 nM final siRNA concentrations) or free peptide at the range of 0.5-4 uM final concentrations were added. Cells were treated with complexes for 20 h. MTS was added according to the manufacturer's protocol. The absorbance of formazan product was measured at 490 nm with Tecan Sunrise microplate absorbance reader (Tecan Group Ltd, Switzerland) and percentage of viable cells was calculated using GraphPad Prism software 5.0 (Graphpad Software, CA, USA).

[4] = system: subcutaneous HT-1080 tumor xenograft; assay: Biodistribution of CPP/Cy5-siRNA nanoparticles, HT-1080 tumor; assay type: in vivo, mouse; details: peak at 3 h
Procedure: Human tumor xenografts (subcutaneous U87MG and HT-1080) were induced in mice (Hsd: Athymic Nude-Foxn1nu female, 2.5 month old, Harlan, UK). The xenografting was performed by implanting the cell suspension (1×10^6 cells in 100 ul volume of ice-cold DMEM without any supplements) subcutaneously to the flank.
At the appearance of tumor size of approx. 100 mm^3, mice were injected i.v. (via tail vein) with the CPP/siRNA complexes. Each animal received a single 200 ul i.v. injection of 20 ug Cy5-siRNA, formulated with CPPs at MR20 or MR40. As a control, 20 μg of un-complexed Cy5-labeled siRNA was administered. The biodistribution of Cy5-siRNA and CPP/Cy5-siRNA complexes was evaluated at different time points −0.5 h up to 6 h. For that, mice (n=2 in each treatment group) were imaged in vivo using IVIS Lumina II (CaliperLS, USA). Cy-5 fluorescence intensity values were acquired from the tumor region.

| Compound | length or size of elongated particles, conglomerates or aggregates (TEM) [1] | nanoparticle diameter / size (TEM) [1] | accessibility of siRNA in complexes (dye intercalation) [2] | RNA levels preserved compared to untreated mice ([3]; 1.6 mg/kg siFVII, 48 h, liver) | downregulation compared to siRNA treated group ([3]; 1.6 mg/kg siRNA) [%] | downregulation compared to free siRNA and In vivo JetPEI at N/P6 ([3]; same 1.6 mg/kg dose) | downregulation of the target (FVII) in mouse liver ([3]; single i.v. injection, 1.6 mg/kg siRNA, MR30, 48 h, vs untreated mice) [%] | siRNA accessible ([2]; 0.5 mg/ml heparin, complexes pre-formed at MR30) [%] | stability of complexes to heparin displacement (in words) ([2]; complexes pre-formed at MR30) | stability of complexes to proteinase K (in words) (Proteinase K) | concentration at which free peptide is toxic to cells (MTS) (U87 cells) [µM] | peak accumulation in HT-1080 tumor relative to naked Cy5-siRNA [4] [fold] |
| --- | --- | --- | --- | --- | --- | --- | --- | --- | --- | --- | --- | --- |
| CCCCCCCCCCCCCCCCCCCC(=O)N[C@@H](Cc1c[nH]cn1)C(=O)N[C@@H](Cc1c[nH]cn1)C(=O)N[C@@H](Cc1c[nH]cn1)C(=O)N[C@@H](Cc1c[nH]cn1)C(=O)N[C@@H](Cc1ccc(O)cc1)C(=O)N[C@@H](Cc1c[nH]cn1)C(=O)N[C@@H](Cc1c[nH]cn1)C(=O)NCC(=O)NCCC[C@H](N)C(=O)N[C@H](C(=O)N[C@@H](CC(C)C)C(=O)N[C@@H](CC(C)C)C(=O)N[C@@H](CCCCN)C(=O)N[C@@H](C)C(=O)N[C@@H](CC(C)C)C(=O)N[C@@H](CCCCN)C(=O)N[C@@H](C)C(=O)N[C@@H](CC(C)C)C(=O)N[C@@H](C)C(=O)N[C@@H](CCCCN)C(=O)N[C@@H](C)C(=O)N[C@H](C(=O)N[C@@H](CC(C)C)C(N)=O)[C@@H](C)CC)[C@@H](C)CC [NF70] (I: H-[Orn]ILLKALKALAKAIL-NH2 / II: Arachidoyl-HHHHYHHG; amide I:1-II:C) | 40-80 nm | 30-40 nm | low accessibility of siRNA | approximately 40% | 30 | higher downregulation effect | ~60 | – | – | – | – | – |
| CCCCCCCCCCCCCCCCCC(=O)N[C@@H](Cc1c[nH]cn1)C(=O)N[C@@H](Cc1c[nH]cn1)C(=O)N[C@@H](Cc1ccc(O)cc1)C(=O)N[C@@H](Cc1c[nH]cn1)C(=O)N[C@@H](Cc1c[nH]cn1)C(=O)NCC(=O)NCCC[C@H](N)C(=O)N[C@H](C(=O)N[C@@H](CC(C)C)C(=O)N[C@@H](CC(C)C)C(=O)N[C@@H](CCCCN)C(=O)N[C@@H](C)C(=O)N[C@@H](CC(C)C)C(=O)N[C@@H](CCCCN)C(=O)N[C@@H](C)C(=O)N[C@@H](CC(C)C)C(=O)N[C@@H](C)C(=O)N[C@@H](CCCCN)C(=O)N[C@@H](C)C(=O)N[C@H](C(=O)N[C@@H](CC(C)C)C(N)=O)[C@@H](C)CC)[C@@H](C)CC [NF71] (I: H-[Orn]ILLKALKALAKAIL-NH2 / II: Stearoyl-HHYHHG; amide I:1-II:C) | – | – | low accessibility of siRNA | – | – | – | – | 17 | less resistant to heparin displacement than NF55/siRNA | only slightly more resistant than NF55/siRNA complexes | ≥ 5 | 37 |
